Data reported in US20180153995A1, “USE OF ANTIMICROBIAL POLYMERS FOR RE-SENSITIZATION OF MICROORGANISMS UPON EMERGENCE OF RESISTANCE TO ANTI-MICROBIAL AGENTS” (Technion Research & Development Foundation Limited, priority 2008, published 2018).
≈ marks a conversion by molar mass, not a printed value. Where two headings read alike, the source gives them in different places.

Key:
[1] = test system: E. coli N282 (L4 mutation); type: cell-based, Escherichia coli; settings: E. coli N282 L4 mutation
[2] = test system: E. coli AB301 (wild type); assay: Erythromycin MIC with or without sub-MIC polymer; type: cell-based, Escherichia coli
S. aureus ATCC 29213 = settings: as determined by the Clinical and Laboratory Standard Institute; cited from earlier work
MRSA 15903 = assay: Sub-MIC time-kill curves (CFU counts); type: cell-based, Staphylococcus aureus
Protocol: At the specified time points of incubation (37° C. under shaking), cultures were subjected to serial 10-fold dilutions (up to 10^6) by adding 50 μl of sample to 450 μl saline (0.85% NaCl). Cell counts were determined using the drop plate method (three 20-μl drops onto LB-agar plates). Plates were incubated at 37° C. and colonies were counted for the calculation after incubation for 24 hours.

ATCC 25923 = assay: microbe, parasite or virus in culture; type: cell-based, Staphylococcus aureus; settings: Staphylococcus aureus, ATCC25923; read-out: MIC
Protocol: (§1) MICs were determined by microdilution susceptibility testing in 96-well plates (by Nunc) using inocula of 10^5 bacteria per ml. Cell populations were evaluated by optical density measurements at 620 nm and were calibrated against a set of standards. Hundred (100) μl of a bacterial suspension were added to 100 μl of culture medium (control) or to 100 μl of culture medium containing various polymer concentrations in 2-fold serial dilutions. Inhibition of proliferation was determined by optical density measurements at 620 nm after an incubation period of 24 hours at 37° C.

E. coli G11a1 = assay: Antibiotic MIC with or without sub-MIC polymer (Tables 20, 21); type: cell-based, Escherichia coli
Protocol: as §1

E. coli D21 = assay: as above; type: cell-based, Escherichia coli

CC[C@H]1OC(=O)[C@H](C)[C@@H](O[C@H]2C[C@@](C)(OC)[C@@H](O)[C@H](C)O2)[C@H](C)[C@@H](O[C@@H]2O[C@H](C)C[C@H](N(C)C)[C@H]2O)[C@](C)(O)C[C@@H](C)C(=O)[C@H](C)[C@@H](O)[C@]1(C)O [Erythromycin, erythromycin]
Antibiotic MIC ([1]; +¼ MIC C12K(NC8K)5NH2): 512 µg/mL
Antibiotic MIC ([1]; +¼ MIC C12K(NC8K)7NH2): 512 µg/mL
Antibiotic MIC ([1]; +½ MIC C12K(NC8K)5NH2): 8 to 16 µg/mL
Antibiotic MIC ([1]; +⅓ MIC C12K(NC8K)7NH2): 512 µg/mL
Antibiotic MIC ([1]; no OAK, Table 18): 512 µg/mL
Antibiotic MIC ([1]; no OAK, Table 19): 512 µg/mL
Antibiotic MIC ([2]; +¼ MIC C12K(NC8K)5NH2): 32 µg/mL
Antibiotic MIC ([2]; +¼ MIC C12K(NC8K)7NH2): 32 µg/mL
Antibiotic MIC ([2]; +½ MIC C12K(NC8K)5NH2): 8 µg/mL
Antibiotic MIC ([2]; +½ MIC C12K(NC8K)7NH2): 4 to 8 µg/mL
Antibiotic MIC ([2]; +⅓ MIC C12K(NC8K)5NH2): 16 to 32 µg/mL
Antibiotic MIC ([2]; +⅓ MIC C12K(NC8K)7NH2): 16 to 32 µg/mL

Cc1onc(-c2ccccc2)c1C(=O)N[C@@H]1C(=O)N2[C@@H]1SC(C)(C)[C@@H]2C(=O)O [Oxacillin, oxacillin]
Oxacillin's MIC per CLSI M100-S15 (S. aureus ATCC 29213): 0.125 to 0.5 µg/mL
reduction of bacterial counts compared to the most active single agent (MRSA 15903; 24 hours, oxacillin 0.78 μM + NC12(KNC12K)2NH2 2.1 μM): 4.7 log10 CFU/ml
surviving organisms below the starting inoculum (MRSA 15903; oxacillin 0.78 μM + NC12(KNC12K)2NH2 2.1 μM): 0.76 log10 CFU/ml
bactericidal activity, agent alone (MRSA 15903; sub-MIC time-kill, single agent): no bactericidal activity
MIC (ATCC 25923): 0.17 µg/mL (≈ 0.423 µM)

CC1(C)S[C@@H]2[C@H](NC(=O)Cc3ccccc3)C(=O)N2[C@H]1C(=O)O [Penicillin G, penicillin G]
Antibiotic MIC, None (E. coli G11a1; antibiotic alone (Table 20)): 512 µg/mL
Antibiotic MIC, None (E. coli G11a1; antibiotic alone (Table 21)): 512 µg/mL
Antibiotic MIC, None (E. coli D21; antibiotic alone (Table 20)): 512 µg/mL
Antibiotic MIC, None (E. coli D21; antibiotic alone (Table 21)): 512 µg/mL
Antibiotic MIC in presence of C12K(NC8K)5NH2 (SEQ ID NO: 3), +¼ MIC (E. coli D21; polymer at ¼ of its MIC): 512 µg/mL
Antibiotic MIC in presence of C12K(NC8K)7NH2 (SEQ ID NO: 4), +¼ MIC (E. coli D21; polymer at ¼ of its MIC): 512 µg/mL
Antibiotic MIC in presence of C12K(NC8K)5NH2 (SEQ ID NO: 3), +½ MIC (E. coli D21; polymer at ½ of its MIC): 256 µg/mL
Antibiotic MIC in presence of C12K(NC8K)7NH2 (SEQ ID NO: 4), +½ MIC (E. coli D21; polymer at ½ of its MIC): 256 µg/mL
Antibiotic MIC in presence of C12K(NC8K)5NH2 (SEQ ID NO: 3), +⅓ MIC (E. coli D21; polymer at ⅓ of its MIC): 256 to 512 µg/mL
Antibiotic MIC in presence of C12K(NC8K)7NH2 (SEQ ID NO: 4), +⅓ MIC (E. coli D21; polymer at ⅓ of its MIC): 512 µg/mL
